The source of these data is ChEMBL document CHEMBL3421531, “Synthesis, and structure-activity relationship for C(4) and/or C(5) thienyl substituted pyrimidines, as a new family of antimycobacterial compounds” (Eur J Med Chem, 2015).

Structures are written as SMILES. Values after ≈ are worked out from the molar mass of the structure shown.

Data set [1] can be described thus: Toxicity in peroral dosed mouse after 14 days. It counts as organism-based. The note with it: in vivo, po.
A further data set deals with Mycolicibacter terrae. Kind of data set: Antimycobacterial activity against Mycobacterium terrae after 10 days by microbroth dilution method. The class given is functional. To be noted: 240 h. On the technique in general: In broth dilution the organism is exposed to a series of concentrations in liquid medium.
For data set [2], the system named is Mycobacterium tuberculosis. Kind of data set: Antimycobacterial activity against Mycobacterium tuberculosis H37Rv after 10 days by microbroth dilution method. The class given is functional. The note with it: 240 h.
In a further data set the test system is Mycobacterium avium. As to the kind of experiment: Antimycobacterial activity against Mycobacterium avium after 10 days by microbroth dilution method. It counts as functional. To be noted: 240 h.

As for `c1ccc2c(-c3cncnc3)csc2c1`, the LD50 (usually the dose at which mortality reaches 50%) at 336 h in data set [1] worked out at 700 mg/kg. The figures for the MIC (in the data set on Mycolicibacter terrae; in data set [2]; with Mycobacterium avium) were 3.3 µM (≈ 0.701 µg/mL), 7.07 µM (≈ 1.5 µg/mL) and 3.3 µM (≈ 0.701 µg/mL), respectively.
Take `Brc1ccc(-c2ncncc2Br)s1`: the MIC (in the data set on Mycolicibacter terrae; in data set [2]; against Mycobacterium avium) was 9.69 µM (≈ 3.1 µg/mL) each time.
On to `c1csc(-c2ncncc2-c2cc3ccccc3s2)c1`, for which the MIC (with Mycolicibacter terrae; in data set [2]; against Mycobacterium avium) was 21.2 µM (≈ 6.25 µg/mL) throughout.
For `c1csc(-c2ccc(-c3ncncc3-c3cccs3)s2)c1`, the LD50 at 336 h in data set [1] came out at 160 mg/kg. For the same compound, the values for the MIC (against Mycolicibacter terrae; in data set [2]; against Mycobacterium avium) were 0.92 µM (≈ 0.3 µg/mL), 2.14 µM (≈ 0.699 µg/mL) and 0.92 µM (≈ 0.3 µg/mL), respectively.
On to `c1ccc2sc(-c3cncnc3)cc2c1`, for which the MIC (in the data set on Mycolicibacter terrae; in data set [2]; against Mycobacterium avium) was 58.9 µM (≈ 12.5 µg/mL) each time.
Regarding `c1csc(-c2ccc(-c3cncnc3)s2)c1`, the MIC (in the data set with Mycolicibacter terrae; in data set [2]; in the data set with Mycobacterium avium) was 25.6 µM (≈ 6.25 µg/mL) each time.
Consider `c1csc(-c2ccc(-c3ncncc3-c3csc4ccccc34)s2)c1`, for which the LD50 at 336 h in data set [1] was found to be 90 mg/kg. For the same compound, the MIC (in general, the lowest concentration found to suppress growth) in the data set with Mycolicibacter terrae came to 0.4 µM (≈ 0.151 µg/mL); in data set [2], 0.98 µM (≈ 0.369 µg/mL); with Mycobacterium avium, 0.98 µM (≈ 0.369 µg/mL).
`c1ccc(-c2ccc(-c3ncncc3-c3csc4ccccc34)s2)cc1` yielded a median lethal dose (LD50) at 336 h in data set [1] of 45 mg/kg. Besides, the MIC (in the data set on Mycolicibacter terrae; in data set [2]; in the data set on Mycobacterium avium) was 0.4 µM (≈ 0.148 µg/mL) in each case.
As for `Brc1ccc(-c2cncnc2)s1`, the minimum inhibitory concentration (MIC) (with Mycolicibacter terrae; in data set [2]; in the data set with Mycobacterium avium) was 51.8 µM (≈ 12.5 µg/mL) in each case.
As for `c1csc(-c2cncnc2-c2cccs2)c1`, the MIC (in the data set on Mycolicibacter terrae; in data set [2]; against Mycobacterium avium) was 12.7 µM (≈ 3.1 µg/mL) each time.
Turning to `c1ccc(-c2ccc(-c3cncnc3)s2)cc1`, the MIC (against Mycolicibacter terrae; in data set [2]; with Mycobacterium avium) was 26.2 µM (≈ 6.25 µg/mL) in each case.
For `c1csc(-c2ncncc2-c2csc3ccccc23)c1`, the MIC (with Mycolicibacter terrae; in data set [2]; against Mycobacterium avium) was 42.5 µM (≈ 12.5 µg/mL) each time.
As for `c1csc(-c2ccc(-c3ncncc3-c3cc4ccccc4s3)s2)c1`, the MIC (in the data set on Mycolicibacter terrae; in data set [2]; with Mycobacterium avium) was 33.2 µM (≈ 12.5 µg/mL) throughout.
For `c1csc(-c2ccc(-c3ccncn3)s2)c1`, the MIC (in the data set on Mycolicibacter terrae; in data set [2]; against Mycobacterium avium) was 51.2 µM (≈ 12.5 µg/mL) each time.
`c1ccc(-c2ccc(-c3ncncc3-c3ccsc3)s2)cc1`: the MIC (in the data set with Mycolicibacter terrae; in data set [2]; against Mycobacterium avium) was 19.5 µM (≈ 6.25 µg/mL) each time.
Take `Brc1cncnc1`: the MIC (against Mycolicibacter terrae; in data set [2]; against Mycobacterium avium) was 78.6 µM (≈ 12.5 µg/mL) throughout.
As to `c1csc(-c2ncncc2-c2ccsc2)c1`, the minimal inhibitory concentration (MIC) (with Mycolicibacter terrae; in data set [2]; in the data set with Mycobacterium avium) was 25.6 µM (≈ 6.25 µg/mL) in each case.
As to `Brc1ccc(-c2ncncc2-c2csc3ccccc23)s1`, the minimal inhibitory concentration (MIC) was found to be 4.02 µM (≈ 1.5 µg/mL) with Mycolicibacter terrae, 8.3 µM (≈ 3.1 µg/mL) in data set [2] and 8.3 µM (≈ 3.1 µg/mL) with Mycobacterium avium.
As to `Brc1ccc(-c2ncncc2-c2cccs2)s1`, the MIC (in the data set with Mycolicibacter terrae; in data set [2]; against Mycobacterium avium) was 38.7 µM (≈ 12.5 µg/mL) in each case.
Consider `c1csc(-c2ccc(-c3ncncc3-c3ccsc3)s2)c1`, for which the minimal inhibitory concentration (MIC) (against Mycolicibacter terrae; in data set [2]; in the data set on Mycobacterium avium) was 19.1 µM (≈ 6.25 µg/mL) in each case.
In the case of `Brc1ccc(-c2ncncc2-c2ccsc2)s1`, the MIC (against Mycolicibacter terrae; in data set [2]; in the data set with Mycobacterium avium) was 19.3 µM (≈ 6.25 µg/mL) throughout.
Regarding `NNC(=O)c1ccncc1` [ISONIAZID], the MIC (in the data set on Mycolicibacter terrae; in data set [2]; against Mycobacterium avium) was 0.73 µM (≈ 0.1 µg/mL) each time.
For `c1ccc(-c2ccc(-c3ncncc3-c3cc4ccccc4s3)s2)cc1`, the MIC was found to be 4.05 µM (≈ 1.5 µg/mL) against Mycolicibacter terrae, 8.37 µM (≈ 3.1 µg/mL) in data set [2] and 8.37 µM (≈ 3.1 µg/mL) in the data set with Mycobacterium avium.
As for `Brc1ccc(-c2ncncc2-c2cc3ccccc3s2)s1`, the MIC (in the data set with Mycolicibacter terrae; in data set [2]; in the data set on Mycobacterium avium) was 33.5 µM (≈ 12.5 µg/mL) throughout.
For `c1csc(-c2cncnc2)c1`, the MIC against Mycolicibacter terrae is 19.1 µM (≈ 3.1 µg/mL); in data set [2] it was 38.5 µM (≈ 6.25 µg/mL); against Mycobacterium avium it was 19.1 µM (≈ 3.1 µg/mL).
For the compound `NC(=O)c1cnccn1` [PYRAZINAMIDE], the minimal inhibitory concentration (MIC) in data set [2] came to 102 µM (≈ 12.5 µg/mL).
In the case of `c1ccc(-c2ccc(-c3ncncc3-c3cccs3)s2)cc1`, the MIC (against Mycolicibacter terrae; in data set [2]; with Mycobacterium avium) was 39 µM (≈ 12.5 µg/mL) in each case.
Take `c1ncc(-c2ccsc2)cn1`: the MIC (against Mycolicibacter terrae; in data set [2]; in the data set on Mycobacterium avium) was 77.1 µM (≈ 12.5 µg/mL) throughout.
